Data reported in patent publication US9212164B2, “Pesticidal compositions and processes related thereto” (Dow AgroSciences LLC, priority 2012, dated 2015).

What was measured:
Format in all cases: in vivo
[1] = tested on: Beet Armyworm (BAW) (Spodoptera exigua); assay: Bioassays on BAW, 128-well diet tray assay; conditions: Spodoptera exigua, 168 h; 50 μg/cm^2 on artificial diet, second instar larvae, five to seven days, 25° C.; read-out: BAW Rating (percent mortality)
Experimental: (§1) Certain molecules disclosed in this document were tested against BAW, CEW and CL using procedures described in the following examples. In the reporting of the results, the “BAW & CEW & CL Rating Table” was used (See Table Section).
Bioassays on BAW (Spodoptera exigua)
Bioassays on BAW were conducted using a 128-well diet tray assay. One to five second instar BAW larvae were placed in each well (3 mL) of the diet tray that had been previously filled with 1 mL of artificial diet to which 50 μg/cm^2 of the test compound (dissolved in 50 μL of 90:10 acetone-water mixture) had been applied (to each of eight wells) and then allowed to dry. Trays were covered with a clear self-adhesive cover, and held at 25° C., 14:10 light-dark for five to seven days. Percent mortality was recorded for the larvae in each well; activity in the eight wells was then averaged. The results are indicated in the tables entitled “Table 3: Assay Results Part 1” and “Table 4: Assay Results Part 2” (See Table Section).

[2] = tested on: Cabbage Looper (CL) (Trichoplusia ni); assay: Bioassays on CL, 128-well diet tray assay; conditions: 168 h, 50 μg/cm^2 on artificial diet, second instar larvae, five to seven days, 25° C., read-out: CL Rating (percent mortality)
Experimental: as §1
Bioassays on CL (Trichoplusia ni)
Bioassays on CL were conducted using a 128-well diet tray assay. One to five second instar CL larvae were placed in each well (3 mL) of the diet tray that had been previously filled with 1 mL of artificial diet to which 50 μg/cm^2 of the test compound (dissolved in 50 μL of 90:10 acetone-water mixture) had been applied (to each of eight wells) and then allowed to dry. Trays were covered with a clear self-adhesive cover, and held at 25° C., 14:10 light-dark for five to seven days. Percent mortality was recorded for the larvae in each well; activity in the eight wells was then averaged. The results are indicated in the table entitled “Table 4: Assay Results Part 2” (See Table Section).

[3] = tested on: Green Peach Aphid (GPA) (Myzus persicae); assay: Bioassays on Green Peach Aphid, foliar spray on cabbage seedlings; conditions: 200 ppm spray on cabbage seedlings, graded after three days
Source text: GPA is the most significant aphid pest of peach trees, causing decreased growth, shriveling of the leaves, and the death of various tissues. It is also hazardous because it acts as a vector for the transport of plant viruses, such as potato virus Y and potato leafroll virus to members of the nightshade/potato family Solanaceae, and various mosaic viruses to many other food crops. GPA attacks such plants as broccoli, burdock, cabbage, carrot, cauliflower, daikon, eggplant, green beans, lettuce, macadamia, papaya, peppers, sweet potatoes, tomatoes, watercress, and zucchini, among other plants. GPA also attacks many ornamental crops such as carnation, chrysanthemum, flowering white cabbage, poinsettia, and roses. GPA has developed resistance to many pesticides.
Certain molecules disclosed in this document were tested against GPA using procedures described in the following example. In the reporting of the results, the “GPA Rating Table” was used (See Table Section).
Cabbage seedlings grown in 3-inch pots, with 2-3 small (3-5 cm) true leaves, were used as test substrate. The seedlings were infested with 20-50 GPA (wingless adult and nymph stages) one day prior to chemical application. […] Percent Control was measured by using Abbott's correction formula (W. S. Abbott, “A Method of Computing the Effectiveness of an Insecticide” J. Econ. Entomol. 18 (1925), pp. 265-267) as follows. […]

| Structure (SMILES) | mortality at 50 µg/cm2 [1] [%] | mortality at 50 µg/cm2 [2] [%] | GPA Rating (corrected % control) [3] |
| --- | --- | --- | --- |
| O=C(NC1(C(=O)NCC(F)(F)F)CCC1)c1ccc(/C=C/C(c2cc(Cl)c(Cl)c(Cl)c2)C(F)(F)F)cc1Br (stereo not drawn) [Compound F5] | 50 to 100 | 50 to 100 | B (More than 0 - Less than 80) |
| O=C(NC1(C(=O)NCC(F)(F)F)CC1)c1ccc(/C=C/C(c2cc(Cl)c(Cl)c(Cl)c2)C(F)(F)F)cc1I (stereo not drawn) [FA2] | 50 to 100 | 50 to 100 | B (More than 0 - Less than 80) |
| O=C(NC1(C(=O)NCc2cccc(C(F)(F)F)c2)CC1)c1ccc(/C=C/C(c2cc(Cl)c(Cl)c(Cl)c2)C(F)(F)F)cc1Br (stereo not drawn) [FA26] | 50 to 100 | 50 to 100 | – |
| O=C(NC1(C(=O)NCC(F)(F)F)CC1)c1ccc(/C=C/C(c2cc(F)cc(Br)c2)C(F)(F)F)cc1Br (stereo not drawn) [Compound P198] | 50 to 100 | 50 to 100 | – |
| O=C(NC1(C(=O)NCC(F)(F)F)CCC1)c1ccc(/C=C/C(c2cc(Cl)c(Cl)c(Cl)c2)C(F)(F)F)cc1Cl (stereo not drawn) [Compound F4] | 50 to 100 | 50 to 100 | – |
| O=C(NC1(C(=O)NCC(F)(F)F)CC1)c1ccc(/C=C/C(c2ccc(Br)c(Br)c2)C(F)(F)F)cc1C(F)(F)F (stereo not drawn) [Compound P425] | 50 to 100 | 50 to 100 | – |
| O=C(NC1(C(=O)NCC(F)F)CC1)c1ccc(/C=C/C(c2cc(Cl)c(Cl)c(Cl)c2)C(F)(F)F)cc1Br (stereo not drawn) [FA32] | 50 to 100 | 50 to 100 | – |
| O=C(NC1(C(=O)NCC(F)(F)F)CC1)c1ccc(/C=C/C(c2cc(Cl)c(Cl)c(Cl)c2)C(F)(F)F)cc1C(F)(F)F (stereo not drawn) [Compound F8] | 50 to 100 | 50 to 100 | – |
| O=C(NC1(C(=O)NCc2cccc(Cl)c2)CC1)c1ccc(/C=C/C(c2cc(Cl)c(Cl)c(Cl)c2)C(F)(F)F)cc1Br (stereo not drawn) [FA27] | 50 to 100 | 50 to 100 | – |
| O=C(NC1(C(=O)NC2CCCC2)CC1)c1ccc(/C=C/C(c2cc(Cl)c(Cl)c(Cl)c2)C(F)(F)F)cc1Br (stereo not drawn) [FA17] | 50 to 100 | 50 to 100 | – |
| CC(F)(F)C(/C=C/c1ccc(C(=O)NC2(C(=O)NCC(F)(F)F)CC2)c(Br)c1)c1ccc(Cl)c(Cl)c1 (stereo not drawn) [FA12] | 50 to 100 | 50 to 100 | – |
| O=C(NC1(C(=O)NC2CCOC2)CC1)c1ccc(/C=C/C(c2cc(Cl)c(Cl)c(Cl)c2)C(F)(F)F)cc1Br (stereo not drawn) [FA25] | 50 to 100 | 50 to 100 | – |
| CCCN(C)C(=O)C1(NC(=O)c2ccc(/C=C/C(c3cc(Cl)c(Cl)c(Cl)c3)C(F)(F)F)cc2Br)CC1 (stereo not drawn) [FA42] | 50 to 100 | 50 to 100 | – |
| CN(Cc1ccc(Br)cc1)C(=O)C1(NC(=O)c2ccc(/C=C/C(c3cc(Cl)c(Cl)c(Cl)c3)C(F)(F)F)cc2Br)CC1 (stereo not drawn) [FA44] | 50 to 100 | 50 to 100 | – |
| O=C(NC1(C(=O)NCc2ccc(Cl)cc2)CC1)c1ccc(/C=C/C(c2cc(Cl)c(Cl)c(Cl)c2)C(F)(F)F)cc1Br (stereo not drawn) [FA16] | 50 to 100 | 50 to 100 | – |
| O=C(NC1(C(=O)NCC(F)(F)F)CC1)c1ccc(/C=C/[C@H](c2cc(Cl)c(Cl)c(Cl)c2)C(F)(F)F)cc1C(F)(F)F (single isomer, unassigned) [Compound F8A] | 50 to 100 | 50 to 100 | – |
| O=C(NC1(C(=O)NCC(F)(F)F)CC1)c1ccc(/C=C/C(c2cc(Cl)c(Cl)cc2Cl)C(F)(F)F)cc1C(F)(F)F (stereo not drawn) [Compound P110] | 50 to 100 | 50 to 100 | – |
| O=C(NC1(C(=O)NCc2ccc(C(F)(F)F)cc2)CC1)c1ccc(/C=C/C(c2cc(Cl)c(Cl)c(Cl)c2)C(F)(F)F)cc1Br (stereo not drawn) [FA34] | 50 to 100 | 50 to 100 | – |
| O=C(NC1(C(=O)NCCC(F)(F)F)CC1)c1ccc(/C=C/C(c2cc(Cl)c(Cl)c(Cl)c2)C(F)(F)F)cc1Br (stereo not drawn) [Compound P1033] | 50 to 100 | 50 to 100 | – |
| O=C(NC1(C(=O)NCC(F)(F)F)CC1)c1ccc(/C=C/C(c2ccc(Cl)c([N+](=O)[O-])c2)C(F)(F)F)cc1Br (stereo not drawn) [Compound P468] | 50 to 100 | 50 to 100 | – |
| O=C(NC1(C(=O)NCC(F)(F)F)CC1)c1ccc(/C=C/C(c2cc(Cl)cc(Cl)c2)C(F)(F)F)cc1C(F)(F)F (stereo not drawn) [Compound P1050] | 50 to 100 | 50 to 100 | – |
| CC(C)CNC(=O)C1(NC(=O)c2ccc(/C=C/C(c3cc(Cl)c(Cl)c(Cl)c3)C(F)(F)F)cc2Br)CC1 (stereo not drawn) [FA30] | 50 to 100 | 50 to 100 | – |
| O=C(NC1(C(=O)NCCF)CC1)c1ccc(/C=C/C(c2cc(Cl)c(Cl)c(Cl)c2)C(F)(F)F)cc1C(F)(F)F (stereo not drawn) [Compound P1020] | 50 to 100 | 50 to 100 | – |
